# Data as given in US20250263753A1, “BRIDGED CYCLE-BASED INHIBITORS OF DNA-DEPENDENT PROTEIN KINASE AND COMPOSITIONS AND APPLICATION IN GENE EDITING” (Juno Therapeutics, Inc., priority 2023, published 2025).
# Like-named read-outs stand apart in the source and are kept apart here.
# Experiments:
# ATM = ATM (Homo sapiens (Human), UniProt Q13315); assay: ATM biochemical assay (Reaction Biology HTRF kinase assay, 10 μM ATP)
# Description: Ataxia-Telangiectasia Mutated (ATM) Biochemical Assay Using Reaction Biology's HTRF Kinase Assay Protocol:
# The assay detects kinase activity by antibody based HTRF assay. The GST-tagged p53 protein serves as substrate and Eu-labeled-antibody with specific phosphorylation site binds upon phosphorylation which is monitored by HTRF from the anti-GST-d2.
# Reagent: Reaction buffer; 50 mM Hepes (pH 7.5), 150 mM NaCl, 10 mM MnCl2, 1% Glycerol, 0.01% Brij35, 1 mM DTT, 1% DMSO.
# Substrate: Human p53 (aa2-393), RBC produced in E. coli, N-terminal GST-Tag, MW=70.42 kDa.
# Detection; MAb Anti-p53-pS15-Eu cryptate, CisBio cat #61P08KAZ; MAb Anti GST-d2
# Reaction Procedure: 1. Deliver 2× Enzyme in wells of reaction plate except No E control wells. Add buffer instead; 2. Deliver compounds in 100% DMSO into the kinase reaction mixture by Acoustic technology (Echo550; nanoliter range), incubate for 30 min at room temperature; 3. Deliver 2× substrate+ATP mixture into the reaction mixture to initiate the reaction; 4. Incubate for 2 hours at room temperature.
# HTRF Detection: 1. Deliver 2× Stop/Detection mixture and incubate for 2 hours to overnight in the dark. 2. HTRF measurement (Ex/Em1/Em2=320/615/665 nm) in EnVision.
# [1] = target: PI3Kδ (His-PIK3CD/PIK3R1, p110 delta/p85 alpha) (Homo sapiens (Human), UniProt O00329); assay: PI3Kδ biochemical assay (HTRF/FRET probe); format: binding
# Description: Phosphoinositide 3-kinase (PI3K) Biochemical Assay: A solution was prepared containing 0.2 nM Anti-HIS-Terbium (Cisbio, 64CUSTAZU), 40 nM designed-probe and 1.0 nM His-PIK3CD/PIK3R1 (p110 delta/p85 alpha) in FRET Buffer (20 mM HEPES, 10 mM MgCl2, 0.015% Brij-35, 4 mM DTT, 0.05 mg/mL BSA).
# [2] = target: PI3Kα (His-PIK3CA/PIK3R1, p110 alpha/p85 alpha) (Homo sapiens (Human), UniProt P42336); assay: PI3Kα biochemical assay (HTRF/FRET probe); format: binding
# Description: Phosphoinositide 3-kinase α (PI3Kα) Biochemical Assay: A solution was prepared containing 0.2 nM Anti-HIS-Terbium (Cisbio, 64CUSTAZU), 3.7 nM designed-probe and 1.0 nM His-PIK3CA/PIK3R1 (p110 alpha/p85 alpha) in FRET Buffer (20 mM HEPES, 10 mM MgCl2, 0.015% Brij-35, 4 mM DTT, 0.05 mg/mL BSA).
# DNA-PK = DNA-PK (Homo sapiens (Human), UniProt P78527); assay: DNA-PK biochemical assay (Reaction Biology HotSpot kinase assay, 10 μM ATP)
# Description: DNA-PK Biochemical Assay Using Reaction Biology's HotSpot Kinase Assay Protocol:
# Reagent: Base Reaction buffer; 20 mM Hepes (pH 7.5), 10 mM MgCl2, 1 mM EGTA, 0.01% Brij35, 0.02 mg/ml BSA, 0.1 mM Na3VO4, 2 mM DTT, 1% DMSO Required cofactors are added individually to each kinase reaction.
# Reaction Procedure: 1. Prepare substrate in freshly prepared Reaction Buffer; 2. Deliver any required cofactors to the substrate solution above; 3. Deliver kinase into the substrate solution and gently mix; 4. Deliver compounds in 100% DMSO into the kinase reaction mixture by Acoustic technology (Echo550; nanoliter range), incubate for 20 min at room temperature; 5. Deliver 33P-ATP into the reaction mixture to initiate the reaction; 6. Incubate for 2 hours at room temperature; 7. Detect kinase activity by P81 filter-binding method.
# [3] = read-out: ATM HTRF 10 μM ATP IC50, class symbol
# [4] = read-out: DNA-PK HotSpot 10 μM ATP IC50, class symbol
# Sequence of ATM (Q13315 whole entry): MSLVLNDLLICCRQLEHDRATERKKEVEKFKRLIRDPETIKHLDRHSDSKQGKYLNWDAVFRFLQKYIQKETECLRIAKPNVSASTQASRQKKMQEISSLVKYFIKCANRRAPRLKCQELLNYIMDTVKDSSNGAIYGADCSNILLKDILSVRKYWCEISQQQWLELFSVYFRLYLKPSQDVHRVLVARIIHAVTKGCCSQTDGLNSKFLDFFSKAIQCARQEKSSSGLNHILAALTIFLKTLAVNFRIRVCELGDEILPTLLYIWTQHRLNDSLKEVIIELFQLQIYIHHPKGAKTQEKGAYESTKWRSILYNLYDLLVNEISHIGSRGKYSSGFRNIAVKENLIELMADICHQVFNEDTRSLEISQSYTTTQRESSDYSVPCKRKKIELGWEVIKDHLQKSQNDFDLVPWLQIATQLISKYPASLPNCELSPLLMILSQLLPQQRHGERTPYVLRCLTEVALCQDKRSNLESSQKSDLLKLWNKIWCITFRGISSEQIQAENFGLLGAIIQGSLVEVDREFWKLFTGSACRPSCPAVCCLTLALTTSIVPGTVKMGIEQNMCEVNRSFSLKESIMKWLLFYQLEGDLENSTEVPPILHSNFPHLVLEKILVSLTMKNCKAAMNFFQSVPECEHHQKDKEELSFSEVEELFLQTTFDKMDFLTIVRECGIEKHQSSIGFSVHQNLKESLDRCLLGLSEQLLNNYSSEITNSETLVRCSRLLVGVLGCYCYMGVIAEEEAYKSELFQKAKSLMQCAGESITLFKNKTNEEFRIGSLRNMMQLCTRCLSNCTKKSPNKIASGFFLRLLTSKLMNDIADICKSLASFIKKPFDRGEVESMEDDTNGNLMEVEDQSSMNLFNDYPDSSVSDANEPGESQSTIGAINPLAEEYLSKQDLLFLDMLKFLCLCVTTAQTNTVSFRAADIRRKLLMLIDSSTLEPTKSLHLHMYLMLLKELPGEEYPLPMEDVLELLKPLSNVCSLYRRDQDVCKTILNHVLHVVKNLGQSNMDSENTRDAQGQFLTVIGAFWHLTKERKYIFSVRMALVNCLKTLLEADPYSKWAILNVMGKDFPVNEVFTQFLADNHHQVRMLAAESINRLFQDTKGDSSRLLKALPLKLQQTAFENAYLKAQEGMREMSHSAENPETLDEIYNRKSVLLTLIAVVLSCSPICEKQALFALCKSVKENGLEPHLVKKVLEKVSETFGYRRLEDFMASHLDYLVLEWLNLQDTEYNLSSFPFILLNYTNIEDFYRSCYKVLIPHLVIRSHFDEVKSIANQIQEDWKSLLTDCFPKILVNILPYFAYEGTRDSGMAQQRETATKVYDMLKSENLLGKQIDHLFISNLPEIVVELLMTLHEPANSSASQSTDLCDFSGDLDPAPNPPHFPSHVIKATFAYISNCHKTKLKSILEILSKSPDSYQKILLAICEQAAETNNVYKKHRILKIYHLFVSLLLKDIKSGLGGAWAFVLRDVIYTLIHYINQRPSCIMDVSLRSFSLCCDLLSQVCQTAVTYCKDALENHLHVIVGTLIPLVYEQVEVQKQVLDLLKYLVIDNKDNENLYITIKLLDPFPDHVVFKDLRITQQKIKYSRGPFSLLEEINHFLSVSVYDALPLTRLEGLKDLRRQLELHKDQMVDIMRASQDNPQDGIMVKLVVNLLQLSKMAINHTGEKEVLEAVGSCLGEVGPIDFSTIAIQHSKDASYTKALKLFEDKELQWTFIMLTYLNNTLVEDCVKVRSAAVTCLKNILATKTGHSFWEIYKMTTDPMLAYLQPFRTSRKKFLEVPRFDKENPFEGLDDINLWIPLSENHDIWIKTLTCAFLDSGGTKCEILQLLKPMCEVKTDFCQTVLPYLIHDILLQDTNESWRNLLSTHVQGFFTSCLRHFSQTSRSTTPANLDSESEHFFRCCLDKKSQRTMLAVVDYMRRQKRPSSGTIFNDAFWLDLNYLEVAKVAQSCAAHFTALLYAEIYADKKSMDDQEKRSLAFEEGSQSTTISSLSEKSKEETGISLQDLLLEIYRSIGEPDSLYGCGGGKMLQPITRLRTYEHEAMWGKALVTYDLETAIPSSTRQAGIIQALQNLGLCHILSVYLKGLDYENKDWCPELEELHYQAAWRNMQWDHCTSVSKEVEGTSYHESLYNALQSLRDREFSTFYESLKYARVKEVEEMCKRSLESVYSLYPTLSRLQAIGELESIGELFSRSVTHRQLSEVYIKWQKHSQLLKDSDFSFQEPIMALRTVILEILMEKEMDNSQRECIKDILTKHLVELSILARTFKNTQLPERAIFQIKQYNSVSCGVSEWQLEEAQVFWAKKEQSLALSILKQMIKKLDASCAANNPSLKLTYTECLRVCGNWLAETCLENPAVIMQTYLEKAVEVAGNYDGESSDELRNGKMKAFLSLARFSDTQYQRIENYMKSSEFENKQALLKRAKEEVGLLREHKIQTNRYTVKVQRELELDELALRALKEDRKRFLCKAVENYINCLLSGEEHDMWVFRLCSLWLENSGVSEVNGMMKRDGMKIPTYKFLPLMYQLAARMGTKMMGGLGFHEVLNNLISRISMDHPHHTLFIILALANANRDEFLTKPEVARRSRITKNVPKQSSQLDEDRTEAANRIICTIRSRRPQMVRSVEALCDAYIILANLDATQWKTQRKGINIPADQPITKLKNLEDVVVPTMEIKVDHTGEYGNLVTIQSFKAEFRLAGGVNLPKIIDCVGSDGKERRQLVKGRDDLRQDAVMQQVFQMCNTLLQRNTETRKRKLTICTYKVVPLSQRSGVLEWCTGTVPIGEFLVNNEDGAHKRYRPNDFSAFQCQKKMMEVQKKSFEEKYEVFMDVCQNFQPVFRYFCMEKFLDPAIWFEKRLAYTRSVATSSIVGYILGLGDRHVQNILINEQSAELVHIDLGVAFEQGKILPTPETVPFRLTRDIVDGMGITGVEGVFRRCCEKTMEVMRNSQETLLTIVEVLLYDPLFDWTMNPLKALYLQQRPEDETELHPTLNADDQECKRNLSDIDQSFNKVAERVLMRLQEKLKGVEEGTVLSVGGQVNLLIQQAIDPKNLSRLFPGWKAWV
# Sequence of PI3Kδ (His-PIK3CD/PIK3R1, p110 delta/p85 alpha) (O00329 whole entry, species assumed): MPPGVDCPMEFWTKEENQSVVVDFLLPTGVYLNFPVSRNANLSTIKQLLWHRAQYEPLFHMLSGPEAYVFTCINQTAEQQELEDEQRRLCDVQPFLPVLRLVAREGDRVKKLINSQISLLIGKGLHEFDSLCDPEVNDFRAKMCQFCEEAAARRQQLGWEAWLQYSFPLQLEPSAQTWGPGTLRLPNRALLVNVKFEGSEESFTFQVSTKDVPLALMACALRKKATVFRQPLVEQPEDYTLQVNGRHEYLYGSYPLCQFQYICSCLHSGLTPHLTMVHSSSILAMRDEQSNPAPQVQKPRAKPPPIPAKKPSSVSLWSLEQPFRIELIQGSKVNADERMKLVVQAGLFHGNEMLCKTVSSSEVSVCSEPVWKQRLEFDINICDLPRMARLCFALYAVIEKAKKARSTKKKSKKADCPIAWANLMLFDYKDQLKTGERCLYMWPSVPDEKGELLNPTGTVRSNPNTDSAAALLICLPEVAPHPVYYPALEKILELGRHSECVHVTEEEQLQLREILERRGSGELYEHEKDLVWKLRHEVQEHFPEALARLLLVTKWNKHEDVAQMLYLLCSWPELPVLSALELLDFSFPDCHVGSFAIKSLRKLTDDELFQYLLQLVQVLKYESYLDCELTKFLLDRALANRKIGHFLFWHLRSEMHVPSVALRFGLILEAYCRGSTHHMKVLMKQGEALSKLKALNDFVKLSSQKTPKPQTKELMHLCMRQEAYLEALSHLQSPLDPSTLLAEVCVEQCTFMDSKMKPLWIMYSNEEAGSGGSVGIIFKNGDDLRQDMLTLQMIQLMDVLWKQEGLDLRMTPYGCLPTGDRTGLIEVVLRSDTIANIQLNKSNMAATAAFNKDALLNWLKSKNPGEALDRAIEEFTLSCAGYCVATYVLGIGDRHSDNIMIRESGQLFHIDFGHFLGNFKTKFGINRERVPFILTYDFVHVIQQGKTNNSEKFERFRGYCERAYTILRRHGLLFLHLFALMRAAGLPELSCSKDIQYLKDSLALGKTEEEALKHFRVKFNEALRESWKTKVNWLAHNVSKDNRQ
# Sequence of PI3Kδ (His-PIK3CD/PIK3R1, p110 delta/p85 alpha) (P27986 whole entry partner, species assumed): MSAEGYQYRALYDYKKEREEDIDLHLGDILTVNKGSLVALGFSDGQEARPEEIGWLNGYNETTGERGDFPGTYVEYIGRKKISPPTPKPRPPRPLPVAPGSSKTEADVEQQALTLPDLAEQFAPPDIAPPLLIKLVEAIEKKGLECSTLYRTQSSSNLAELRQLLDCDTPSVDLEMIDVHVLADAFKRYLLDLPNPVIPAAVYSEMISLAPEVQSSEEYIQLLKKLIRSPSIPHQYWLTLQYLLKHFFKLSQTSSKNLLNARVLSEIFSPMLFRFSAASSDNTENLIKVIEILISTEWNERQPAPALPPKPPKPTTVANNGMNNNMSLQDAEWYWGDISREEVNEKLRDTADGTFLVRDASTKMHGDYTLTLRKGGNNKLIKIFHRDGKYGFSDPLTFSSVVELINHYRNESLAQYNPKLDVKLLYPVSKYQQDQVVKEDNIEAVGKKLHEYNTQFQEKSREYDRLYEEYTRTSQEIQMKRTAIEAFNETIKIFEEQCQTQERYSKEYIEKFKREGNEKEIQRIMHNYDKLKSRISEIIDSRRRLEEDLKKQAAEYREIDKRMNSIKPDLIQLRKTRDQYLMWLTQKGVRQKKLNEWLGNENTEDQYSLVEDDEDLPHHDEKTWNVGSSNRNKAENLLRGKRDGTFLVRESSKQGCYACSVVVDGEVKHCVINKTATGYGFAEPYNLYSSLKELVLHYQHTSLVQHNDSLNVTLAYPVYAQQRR
SMILES,IC50 (ATM; [3]) [nM],IC50 ([1]; class symbol) [nM],IC50 ([2]; class symbol) [nM],IC50 (DNA-PK; [4]) [nM],IC50 (ATM; class symbol) [nM],"IC50 (ATM; read-out: ATM HTRF 10 μM ATP IC50, numeric value) [nM]",IC50 ([1]; numeric value) [nM],IC50 ([2]; numeric value) [nM],IC50 (DNA-PK; class symbol) [nM],"IC50 (DNA-PK; read-out: DNA-PK HotSpot 10 μM ATP IC50, numeric value) [nM]"
"Cc1cc2c(cc1Nc1ncc3c(n1)N(C14CCC(O)(CC1)C4)C(=O)C31CC1)OCO2 [Compound 68, 7′-(4-hydroxybicyclo[2.2.1]heptan-1-yl)-2′-((6-methylbenzo[d][1,3]dioxol-5-yl)amino)spiro[cyclopropane-1,5′-pyrrolo[2,3-d]pyrimidin]-6′(7′H)-one]",≥ 1000,100 to 1000,100 to 1000,< 1,–,–,–,–,–,–
"Cc1cc2ncnn2cc1Nc1ncc2c(n1)n(C13CCC(O)(CC1)CC3)c(=O)n2C [Compound 78, 9-(4-hydroxybicyclo[2.2.2]octan-1-yl)-7-methyl-2-((7-methyl-[1,2,4]triazolo[1,5-a]pyridin-6-yl)amino)-7,9-dihydro-8H-purin-8-one]",–,100 to 1000,100 to 1000,–,10 to 100,36,214,152,< 1,0.71
"Cc1cc2ncnn2cc1Nc1ncc2c(n1)n(C13CC(F)(C1)C3)c(=S)n2C [Compound 34, 9-(3-fluorobicyclo[1.1.1]pentan-1-yl)-7-methyl-2-((7-methyl-[1,2,4]triazolo[1,5-a]pyridin-6-yl)amino)-7,9-dihydro-8H-purine-8-thione]",≥ 1000,100 to 1000,≥ 1000,–,–,–,–,–,10 to 100,–
"Cc1cc2nccnc2cc1Nc1ncc2c(n1)N(C13CC(F)(C1)C3)C(=O)C21CC1 [Compound 72, 7′-(3-fluorobicyclo[1.1.1]pentan-1-yl)-2′-((7-methylquinoxalin-6-yl)amino)spiro[cyclopropane-1,5′-pyrrolo[2,3-d]pyrimidin]-6′(7′H)-one]",–,≥ 1000,100 to 1000,< 1,100 to 1000,–,–,–,–,–
"COC12CCC(n3c(=O)n(C)c4cnc(Nc5cc(F)c(-c6cnn(C)c6)cc5C)nc43)(C1)C2 [Compound 39, 2-((5-fluoro-2-methyl-4-(1-methyl-1H-pyrazol-4-yl)phenyl)amino)-9-(4-methoxybicyclo[2.1.1]hexan-1-yl)-7-methyl-7,9-dihydro-8H-purin-8-one]",–,≥ 1000,100 to 1000,–,10 to 100,–,–,–,10 to 100,–
"Cc1cc2c(cc1Nc1ncc3c(n1)n(C14CCC(C#N)(CC1)CC4)c(=O)n3C)OCO2 [Compound 24, 4-(7-methyl-2-((6-methylbenzo[d][1,3]dioxol-5-yl)amino)-8-oxo-7,8-dihydro-9H-purin-9-yl) bicyclo[2.2.2]octane-1-carbonitrile]",–,≥ 1000,100 to 1000,< 1,10 to 100,–,–,–,–,–
"Cc1cc2ncnn2cc1Nc1ncc2c(n1)n(C13CCC(O)(CC1)C3)c(=S)n2C [Compound 31, 9-(4-hydroxybicyclo[2.2.1]heptan-1-yl)-7-methyl-2-((7-methyl-[1,2,4]triazolo[1,5-a]pyridin-6-yl)amino)-7,9-dihydro-8H-purine-8-thione]",–,10 to 100,100 to 1000,–,100 to 1000,–,–,–,1 to 10,–
"Cc1cc2nsnc2cc1Nc1ncc2c(n1)n(C13CCC(O)(CC1)C3)c(=O)n2C [Compound 3, 9-(4-hydroxybicyclo[2.2.1]heptan-1-yl)-7-methyl-2-((6-methylbenzo[c][1,2,5]thiadiazol-5-yl)amino)-7,9-dihydro-8H-purin-8-one]",–,≥ 1000,10 to 100,< 1,1 to 10,–,–,–,–,–
"COC12CCC(n3c(=O)n(C)c4cnc(Nc5cc6c(cc5C)OCO6)nc43)(CC1)CC2 [Compound 26, 9-(4-methoxybicyclo[2.2.2]octan-1-yl)-7-methyl-2-((6-methylbenzo[d][1,3]dioxol-5-yl)amino)-7,9-dihydro-8H-purin-8-one]",–,≥ 1000,100 to 1000,< 1,10 to 100,–,–,–,–,–
"Cc1cc2ncnn2cc1Nc1ncc2c(n1)n(C13CC(C(F)(F)F)(C1)C3)c(=O)n2C [Compound 18, 7-methyl-2-((7-methyl-[1,2,4]triazolo[1,5-a]pyridin-6-yl)amino)-9-(3-(trifluoromethyl)bicyclo[1.1.1]pentan-1-yl)-7,9-dihydro-8H-purin-8-one]",–,≥ 1000,≥ 1000,–,1 to 10,–,–,–,1 to 10,–
"COC12CCC(n3c(=O)n(C)c4cnc(Nc5cn6ncnc6cc5C)nc43)(CC1)CC2 [Compound 25, 9-(4-methoxybicyclo[2.2.2]octan-1-yl)-7-methyl-2-((7-methyl-[1,2,4]triazolo[1,5-a]pyridin-6-yl)amino)-7,9-dihydro-8H-purin-8-one]",–,100 to 1000,100 to 1000,< 1,1 to 10,–,–,–,–,–
"COC12CCC(n3c(=O)n(C)c4cnc(Nc5cn6ncnc6cc5C)nc43)(C1)C2 [Compound 29, 9-(4-methoxybicyclo[2.1.1]hexan-1-yl)-7-methyl-2-((7-methyl-[1,2,4]triazolo[1,5-a]pyridin-6-yl)amino)-7,9-dihydro-8H-purin-8-one]",–,≥ 1000,≥ 1000,–,100 to 1000,–,–,–,1 to 10,–
"COCC12CC(n3c(=O)n(C)c4cnc(Nc5cc6c(cc5C)OCO6)nc43)(C1)C2 [Compound 21, 9-(3-(methoxymethyl)bicyclo[1.1.1]pentan-1-yl)-7-methyl-2-((6-methylbenzo[d][1,3]dioxol-5-yl)amino)-7,9-dihydro-8H-purin-8-one]",–,≥ 1000,≥ 1000,–,10 to 100,–,–,–,1 to 10,–
"Cc1cc(-c2cnn(C)c2)c(F)cc1Nc1ncc2c(n1)n(C13CCC(O)(CC1)C3)c(=O)n2C [Compound 37, 2-((5-fluoro-2-methyl-4-(1-methyl-1H-pyrazol-4-yl)phenyl)amino)-9-(4-hydroxybicyclo[2.2.1]heptan-1-yl)-7-methyl-7,9-dihydro-8H-purin-8-one]",–,≥ 1000,100 to 1000,< 1,1 to 10,–,–,–,–,–
"Cc1cc2nccnc2cc1Nc1ncc2c(n1)n(C13CC(F)(C1)C3)c(=O)n2C [Compound 15, 9-(3-fluorobicyclo[1.1.1]pentan-1-yl)-7-methyl-2-((7-methylquinoxalin-6-yl)amino)-7,9-dihydro-8H-purin-8-one]",–,≥ 1000,100 to 1000,–,100 to 1000,–,–,–,1 to 10,–
"COC12CCC(N3CC(=O)N(C)c4cnc(Nc5cc6nsnc6cc5C)nc43)(CC1)C2 [Compound 64, 8-(4-methoxybicyclo[2.2.1]heptan-1-yl)-5-methyl-2-((6-methylbenzo[c][1,2,5]thiadiazol-5-yl)amino)-7,8-dihydropteridin-6(5H)-one]",–,100 to 1000,10 to 100,< 1,1 to 10,–,–,–,–,–
"Cc1cc2c(cc1Nc1ncc3c(n1)N(C14CC(F)(C1)C4)CC(=O)N3C)OCO2 [Compound 56, 8-{3-Fluorobicyclo[1.1.1]pentan-1-yl}-5-methyl-2-[(6-methyl-2H-1,3-benzodioxol-5-yl)amino]-5,6,7,8-tetrahydropteridin-6-one]",≥ 1000,≥ 1000,≥ 1000,–,–,–,–,–,10 to 100,–
"Cc1cc(-c2cnco2)ncc1Nc1ncc2c(n1)N(C13CC(F)(C1)C3)C(=O)C21CC1 [Compound 74, 7′-(3-fluorobicyclo[1.1.1]pentan-1-yl)-2′-((4-methyl-6-(oxazol-5-yl)pyridin-3-yl)amino)spiro[cyclopropane-1,5′-pyrrolo[2,3-d]pyrimidin]-6′(7′H)-one]",–,≥ 1000,100 to 1000,–,10 to 100,–,–,–,1 to 10,–
